Among the test systems are NCI-H226 lung; MCF7 breast; U251 CNS; KM12 colon; TK-10 renal; SF-268 CNS; K-562 leukemia; CAKI-1 renal; HT29 colon; UACC-62 melanoma.
Common to all, as to experiment: growth of human tumour cells (NCI), 48 h

Values joined by “and” are separate entries in the source; they are usually repeats but may differ in a detail not shown here. Identical values can stand only once.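 Cultured in 96-well plates, cells were exposed to test compound for 48 hours across five concentrations. The concentration for 50% growth inhibition is given as GI50. TGI marks complete inhibition of growth.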

In PubChem BioAssay (NCI) one finds GI50 and TGI data, which are given here for eight molecules.

For `O=CCC(O)C(O)C(O)CO` (centres undefined), the GI50 in the test with NCI-H226 lung, in the test on MCF7 breast, in the test on U251 CNS, with KM12 colon, in the test on TK-10 renal and in the test on SF-268 CNS was greater than 100 µM throughout. Moreover, the GI50 in the test on K-562 leukemia, in the test on CAKI-1 renal, in the test on HT29 colon and with UACC-62 melanoma was greater than 100 µM in each case. The TGI in the test on NCI-H226 lung, in the test on MCF7 breast, with U251 CNS, in the test with KM12 colon, with TK-10 renal and in the test with SF-268 CNS was greater than 100 µM each time. Further, the TGI with K-562 leukemia, in the test with CAKI-1 renal, in the test with HT29 colon and in the test with UACC-62 melanoma was greater than 100 µM in each case.
For the molecule `O=C(/C=C/c1cc(O)ccc1O)c1ccc(Cl)cc1`, the GI50 with NCI-H226 lung was 22.3 µM; in the test on MCF7 breast it was 48.5 µM; with U251 CNS it was 19.6 µM; with KM12 colon, 31.8 µM; with TK-10 renal it was 31.6 µM; in the test on SF-268 CNS it was 20.7 µM. Besides, the GI50 in the test with K-562 leukemia is 46.1 µM; with CAKI-1 renal it was 44 µM; in the test with HT29 colon, 54.4 µM; in the test on UACC-62 melanoma, 17.5 µM. Also, the TGI in the test on NCI-H226 lung was 66.8 µM; in the test on MCF7 breast it was greater than 100 µM; with U251 CNS, 51.2 µM; in the test with KM12 colon, greater than 100 µM; with TK-10 renal, greater than 100 µM; in the test on SF-268 CNS, greater than 100 µM. Further, the TGI with K-562 leukemia was greater than 100 µM; with CAKI-1 renal, greater than 100 µM; in the test on HT29 colon it was greater than 100 µM; in the test with UACC-62 melanoma, 40.1 µM.
With `COc1ccc2c(ccc3oc([N+](=O)[O-])cc32)c1`, the GI50 was 0.193 µM in the test on NCI-H226 lung; 0.176 µM with MCF7 breast; 0.197 µM in the test on U251 CNS; 0.288 µM in the test with KM12 colon; 0.278 µM in the test on TK-10 renal; 0.176 µM with SF-268 CNS. Besides, the GI50 in the test on K-562 leukemia was 0.0647 µM; in the test with CAKI-1 renal, 0.128 µM; with HT29 colon, 0.202 µM; with UACC-62 melanoma, 0.158 µM. In addition, the TGI is 0.629 µM in the test with NCI-H226 lung; 3 µM in the test on MCF7 breast; 0.578 µM with U251 CNS; 1.21 µM with KM12 colon; 0.854 µM in the test with TK-10 renal; 1.87 µM in the test on SF-268 CNS. Also, the TGI with K-562 leukemia is 6.14 µM; in the test with CAKI-1 renal it was 0.755 µM; in the test on HT29 colon it was 0.874 µM; in the test with UACC-62 melanoma, 0.333 µM.
On to `C=CC(=O)N1CCC(CNc2ncnc(N)c2-c2ccc(Oc3ccccc3)cc2)CC1`, for which the GI50 with NCI-H226 lung is 19.5 µM; in the test with MCF7 breast, 23.4 µM; in the test on U251 CNS, 25.7 µM; with KM12 colon it was 28.7 µM; with TK-10 renal it was 21.4 µM; in the test on SF-268 CNS, 26.6 µM. Further, the GI50 with K-562 leukemia was 22.5 µM; in the test with CAKI-1 renal, 22.5 µM; with HT29 colon it was 30.7 µM; in the test with UACC-62 melanoma, 16 µM. The TGI is 85.1 µM with NCI-H226 lung; greater than 100 µM in the test with MCF7 breast; greater than 100 µM in the test on U251 CNS; greater than 100 µM in the test on KM12 colon; greater than 100 µM in the test with TK-10 renal; greater than 100 µM in the test on SF-268 CNS. Also, the TGI is greater than 100 µM in the test on K-562 leukemia, greater than 100 µM in the test on CAKI-1 renal, greater than 100 µM in the test on HT29 colon and 34.8 µM with UACC-62 melanoma.
For `CSc1ccc(NC(=O)CCl)cc1`, the TGI with NCI-H226 lung, in the test on MCF7 breast, with U251 CNS, in the test with KM12 colon, with TK-10 renal and in the test on SF-268 CNS was greater than 10 µM throughout. In addition, the TGI in the test on K-562 leukemia was greater than 10 µM; in the test with CAKI-1 renal, greater than 10 µM; in the test on HT29 colon, greater than 10 µM; in the test on UACC-62 melanoma, 3.65 µM.
As to `O=C(Cc1ccc(-c2ccc(OCCN3CCOCC3)cc2)cn1)NCc1ccccc1`, the GI50 with NCI-H226 lung was 0.244 µM and 0.112 µM; in the test with MCF7 breast, < 0.0164 µM and 0.0356 µM; in the test on U251 CNS it was 0.0417 µM and 0.0377 µM; in the test on KM12 colon, 0.032 µM and 0.0387 µM; with SF-268 CNS, 0.083 µM and 0.332 µM; in the test with K-562 leukemia, 0.0255 µM and 0.0264 µM. The GI50 in the test with CAKI-1 renal is 0.0703 µM and 0.0506 µM; in the test on HT29 colon it was 0.0343 µM and 0.0342 µM; with UACC-62 melanoma it was 0.0408 µM. In addition, the TGI was greater than 100 µM with NCI-H226 lung; greater than 100 µM in the test with MCF7 breast; greater than 100 µM in the test on U251 CNS; greater than 7.88 µM in the test with KM12 colon; greater than 100 µM in the test with TK-10 renal; greater than 100 µM with SF-268 CNS. Besides, the TGI in the test with K-562 leukemia is greater than 100 µM; in the test on CAKI-1 renal, greater than 100 µM; with HT29 colon, greater than 37.6 µM; in the test with UACC-62 melanoma, greater than 100 µM.
In the case of `O=C1c2ccccc2-c2c1c1ccc([N+](=O)[O-])cc1c(=O)n2CCN1CCOCC1`, the GI50 is greater than 100 µM with NCI-H226 lung; 43 µM in the test on MCF7 breast; 49.6 µM with U251 CNS; greater than 100 µM in the test on KM12 colon; greater than 100 µM in the test with TK-10 renal; greater than 100 µM with SF-268 CNS. Besides, the GI50 in the test with K-562 leukemia is greater than 100 µM; with CAKI-1 renal it was 41.3 µM; in the test with HT29 colon it was greater than 100 µM; in the test on UACC-62 melanoma it was 82.7 µM. Besides, the TGI in the test with NCI-H226 lung, in the test with MCF7 breast, with U251 CNS, with KM12 colon, in the test on TK-10 renal and with SF-268 CNS was greater than 100 µM throughout. Further, the TGI in the test with K-562 leukemia, in the test on CAKI-1 renal, in the test on HT29 colon and in the test with UACC-62 melanoma was greater than 100 µM each time.
Regarding `COc1cc(-c2cn(-c3ccc(F)cc3)c(=O)[nH]2)cc(OC)c1OC`, the GI50 with NCI-H226 lung, with MCF7 breast, in the test on U251 CNS, in the test on KM12 colon, in the test with TK-10 renal and in the test on SF-268 CNS was greater than 100 µM throughout. In addition, the GI50 in the test with K-562 leukemia, in the test with CAKI-1 renal, with HT29 colon and in the test with UACC-62 melanoma was greater than 100 µM throughout. Also, the TGI with NCI-H226 lung, in the test on MCF7 breast, in the test on U251 CNS, with KM12 colon, in the test on TK-10 renal and in the test on SF-268 CNS was greater than 100 µM in each case. In addition, the TGI in the test with K-562 leukemia, in the test with CAKI-1 renal, in the test on HT29 colon and in the test with UACC-62 melanoma was greater than 100 µM each time.
